Measurements: ChEMBL document CHEMBL1156085, “Design of novel alpha7-subtype-preferring nicotinic acetylcholine receptor agonists: application of docking and MM-PBSA computational approaches, synthetic and pharmacological studies” (Bioorg Med Chem Lett, 2009)

Assays:
[1] = target: Neuronal acetylcholine receptor; alpha4/beta2 (Rattus norvegicus, UniProt P09483+P12390); test: Displacement of [3H]epibatidine from rat alpha4beta2 nAChR; format: protein-complex assay
[2] = target: T1, Neuronal acetylcholine receptor subunit alpha-7 (Rattus norvegicus, UniProt Q05941); test: Displacement of [125I]alpha-bungarotoxin from rat alpha7 nAChR
T1 sequence (Q05941 whole entry): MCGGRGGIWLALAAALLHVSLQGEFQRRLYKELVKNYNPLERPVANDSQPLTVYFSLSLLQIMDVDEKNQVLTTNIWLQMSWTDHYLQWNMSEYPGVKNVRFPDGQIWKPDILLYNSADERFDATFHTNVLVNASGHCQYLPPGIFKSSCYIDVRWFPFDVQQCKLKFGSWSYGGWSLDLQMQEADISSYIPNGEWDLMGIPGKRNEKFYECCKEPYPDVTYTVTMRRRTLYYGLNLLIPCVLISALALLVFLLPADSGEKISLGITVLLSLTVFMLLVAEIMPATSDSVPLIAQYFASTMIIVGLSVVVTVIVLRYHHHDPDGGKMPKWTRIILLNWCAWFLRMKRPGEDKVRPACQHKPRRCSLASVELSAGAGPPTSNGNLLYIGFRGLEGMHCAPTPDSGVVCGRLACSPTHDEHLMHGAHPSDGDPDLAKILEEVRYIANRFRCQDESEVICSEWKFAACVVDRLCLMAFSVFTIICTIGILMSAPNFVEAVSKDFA

[3] = target: T1, Neuronal acetylcholine receptor subunit alpha-7; test: Displacement of [3H]MLA from rat alpha7 nAChR

Chain of Neuronal acetylcholine receptor; alpha4/beta2 (P09483 whole entry): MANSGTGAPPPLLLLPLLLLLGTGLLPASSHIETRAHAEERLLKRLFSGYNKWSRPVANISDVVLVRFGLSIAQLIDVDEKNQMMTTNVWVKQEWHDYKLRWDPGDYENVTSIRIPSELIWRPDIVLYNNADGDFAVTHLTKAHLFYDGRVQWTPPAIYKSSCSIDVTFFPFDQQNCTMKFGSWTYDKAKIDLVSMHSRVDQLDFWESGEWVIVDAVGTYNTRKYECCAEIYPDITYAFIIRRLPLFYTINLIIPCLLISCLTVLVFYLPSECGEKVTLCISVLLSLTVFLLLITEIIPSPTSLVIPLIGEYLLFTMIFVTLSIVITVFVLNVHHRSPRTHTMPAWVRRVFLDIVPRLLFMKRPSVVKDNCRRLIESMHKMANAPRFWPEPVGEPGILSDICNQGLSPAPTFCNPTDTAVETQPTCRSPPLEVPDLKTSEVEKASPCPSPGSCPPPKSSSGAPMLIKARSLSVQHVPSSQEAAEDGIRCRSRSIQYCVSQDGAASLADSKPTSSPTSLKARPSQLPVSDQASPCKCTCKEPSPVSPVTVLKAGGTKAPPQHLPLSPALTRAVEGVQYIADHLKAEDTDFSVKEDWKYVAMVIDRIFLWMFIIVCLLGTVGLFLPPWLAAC
Chain of Neuronal acetylcholine receptor; alpha4/beta2 (P12390 whole entry): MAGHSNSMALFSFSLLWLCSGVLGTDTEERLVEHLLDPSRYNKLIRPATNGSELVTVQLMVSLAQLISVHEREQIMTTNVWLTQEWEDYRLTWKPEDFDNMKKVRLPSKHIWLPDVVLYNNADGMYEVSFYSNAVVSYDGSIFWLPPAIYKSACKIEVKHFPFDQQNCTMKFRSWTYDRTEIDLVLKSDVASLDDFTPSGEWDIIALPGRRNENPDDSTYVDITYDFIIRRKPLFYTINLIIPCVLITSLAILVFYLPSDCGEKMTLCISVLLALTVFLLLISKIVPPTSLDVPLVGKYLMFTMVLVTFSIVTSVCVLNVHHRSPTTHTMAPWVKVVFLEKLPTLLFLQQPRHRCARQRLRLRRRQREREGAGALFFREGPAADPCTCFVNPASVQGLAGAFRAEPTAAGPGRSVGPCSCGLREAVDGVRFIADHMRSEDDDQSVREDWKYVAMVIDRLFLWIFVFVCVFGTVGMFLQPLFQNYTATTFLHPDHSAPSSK

SMILES | Ki [1] [µM] | Ki [2] [µM] | Ki [3] [µM]
c1cc(N2CCOCC2)ncc1C1CN2CCC1CC2 (stereo not drawn) | 21 | 0.35 | –
C1=C(c2ccc(N3CCOCC3)nc2)C2CCC1N2 (stereo not drawn) | 12 | 33 | –
C1=C(c2ccc(N3CCOCC3)nc2)C2CCN1CC2 | 3.1 | 0.4 | –
C[N+]12CCC(CC1)C(c1ccc(N3CCOCC3)nc1)C2 (stereo not drawn) | 25 | 6.1 | –
C[N+]12C=C(c3ccc(N4CCOCC4)nc3)C(CC1)CC2 | 22 | 5.6 | –
C1=C(c2cccnc2)C2CCN1CC2 | 0.11 | 0.14 | 0.085
